According to PubChem BioAssay (NCI):
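Assay format: 96-well plates, 48-hour exposure. Definition used: TGI = concentration required for complete inhibition of growth.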

How the values were obtained:
Assay in all cases: NCI tumour cell line growth inhibition, 48 h
[1] = test system: HOP-92 NSCLC
[2] = test system: U251 CNS
[3] = test system: HCC-2998 colon
[4] = test system: SN12C renal
[5] = test system: OVCAR-8 ovarian
[6] = test system: A498 renal
[7] = test system: BT-549 breast

SMILES	TGI [1] [µM]	TGI [2] [µM]	TGI [3] [µM]	TGI [4] [µM]	TGI [5] [µM]	TGI [6] [µM]	TGI [7] [µM]
CC(C)C(NCc1c(O)ccc2c(-c3ccccc3)cc(=O)oc12)C(=O)O (stereo not given)	> 100	> 100	> 100	> 100	> 100	–	–
CCOC(=O)c1c(N2CCCC2)[nH]c(=O)c(C(c2cccs2)c2c(O)c(C(=O)OCC)c(N3CCCC3)[nH]c2=O)c1O	> 100	> 100	> 100	> 100	> 100	> 100	> 100
COc1cc(C(=O)Oc2c(C#N)sc3c2c(=O)n(-c2ccccc2)c(=S)n3-c2ccccc2)cc(OC)c1OC	64.4	45.9	45.2	32.3	59.2	19.6	–
COc1ccc(NC2CC(C)N(C(=O)c3ccccc3)O2)cc1 (stereo not given)	–	–	> 10	> 10	> 10	–	> 10
O=c1oc2ccc([N+](=O)[O-])cc2c(Nc2ccc3c(c2)S(=O)(=O)c2ccccc2O3)c1[N+](=O)[O-]	> 100	> 100	> 100	> 100	> 100	–	> 100
COc1cc(C2C(Cl)C(=O)N2NC(=O)c2ccc(NC(C)=O)cc2OC)ccc1O (stereo not given)	31.3	–	–	35	73.3	37.5	33.9
CC1=NN=C(N)NC1=CC(Sc1ccc(Cl)cc1)c1c(O)ccc2ccccc12 (stereo not given)	> 78.5	76.8	32.2	97.3	43.6	37.5	> 81.5
S=C1N=C(Cl)/C(=C\c2ccccc2)N1	> 100	> 100	> 100	> 100	> 100	> 100	> 100
CC1=NN(C(=O)CC(=O)Nc2cccc(Cl)c2)C(=O)C1N=Nc1ccc(C(=O)O)cc1 (stereo not given)	> 100	> 100	> 100	> 100	> 100	> 100	> 100
CC(=O)c1sc(=N)n(-c2c(C)cccc2C)c1C	–	> 100	> 100	> 100	–	> 100	> 100
O=C(CSC1=NNC2(C(=O)N1)c1ccccc1-c1ccccc12)NC(=S)Nc1ccccc1	> 10	–	> 10	> 10	> 10	–	> 10
CC(=O)OCC(Br)C1(C)CCC(C(C)(C)Br)O1 (stereo not given)	> 100	> 100	> 100	> 100	–	> 100	> 100
CCCC[C@H]1CCN2C[C@@H](O)[C@@H](O)[C@H]2[C@@H]1O	> 100	> 100	> 100	> 100	> 100	> 100	> 100
Cc1ncc([N+](=O)[O-])n1CCNC(=O)Cn1c([N+](=O)[O-])cnc1C	–	> 100	> 100	> 100	> 100	> 100	> 100
Cc1cc2c(cc1Cl)SC(NNc1ccc([N+](=O)[O-])cc1)=NS2(=O)=O	–	> 10	> 10	> 10	> 10	> 10	> 10
c1ccc2cc3c(cc2c1)nc1ccccn13	> 100	> 100	> 100	> 100	> 100	–	> 100
C=CCN1CN(c2ccccc2)C2(CCN(CCCC3(c4ccc(F)cc4)OCCO3)CC2)C1=O	–	29.4	35.6	32	32.5	–	–
O=C1NC2(CCN(CCCC3(c4ccc(F)cc4)OCCO3)CC2)Oc2ccccc21	> 100	> 100	> 100	> 100	> 100	80.5	–
N#CC(C#N)=Cn1c(=S)[nH]c2ccccc21	> 100	> 100	> 100	> 100	> 100	> 100	–
O=c1[nH]n(Cc2ccccc2Cl)c2ccccc12	> 100	> 100	> 100	> 100	> 100	> 100	–
Cc1cccc2c(=O)c3cccc([C@@H](C)C(=O)O)c3oc12	> 100	> 100	> 100	> 100	> 100	> 100	–
CC(C)C(NC(=O)C(Cc1ccccc1)NC(=O)[C@H]1CCC[C@H]1NC(=O)C(N)Cc1ccc(O)cc1)C(N)=O (stereo not given in full)	> 100	> 100	> 100	> 100	> 100	> 100	–
O=C1c2ccccc2-c2c1c(-c1cccc(Br)c1)nc1ccc3ccccc3c21	–	> 100	> 100	> 100	> 100	> 100	> 100
CCC(=O)C(C(C)/C=C/CCSc1ccccc1)C(O)CCCCCC(=O)OC (stereo not given)	> 100	> 100	> 100	> 100	> 100	–	> 100
CNCCC=C1c2ccccc2CCc2ccccc21	28.8	27.6	–	29.2	31.7	28.9	29.1
COc1cc2c(cc1OC)C(=O)N(NC1=NCCN1)C2=O	–	> 100	> 100	> 100	> 100	> 100	> 100
N#Cc1sc2c(c1O)c(=O)n(-c1ccccc1)c(=S)n2-c1ccccc1	> 100	> 100	> 100	> 100	> 100	–	> 100
O=C1Oc2cc3c(c4cccc1c24)O[C@H](c1ccccc1)[C@@H](c1ccccc1)[C@@H]3c1ccc(Cl)cc1	67.9	50.1	> 100	> 100	95.8	–	–
CCc1cc2c(oc3cc(C)ccc32)c(=O)n1C	> 10	> 10	> 10	> 10	> 10	–	> 10
O=C(NNC(=O)c1ccccc1O)c1ccc(O)cc1	–	> 100	–	> 100	> 100	> 100	> 100
